From patent US11878080B2, “Protein capsules” (Cambridge Enterprise Limited, priority 2014, dated 2024)

Legend:
[1] = Release of encapsulated small molecules from capsules in fresh buffer (UV absorption of supernatant); format: physicochemical
Method: The release of the encapsulated species from the capsules was then studied. To this effect, the capsules were incubated in fresh buffer for an increasing period of time, removed the gels by centrifugation, and measured the concentration of released small molecules in the supernatant through their UV absorption. The results shown in FIG. 4 (d) reveal marked differences in the rate of release of the small molecules.
The loaded microgels were washed with 10 mM HCl at intervals of time from 10 min to 14 d. The solutes after each washing were analysed by UV spectroscopy.

[2] = Release kinetics of insulin, glucagon and lysozyme from protein microgel capsules (washing with DDW pH 7); format: physicochemical; conditions: compared to insulin and lysozyme proteins
Method: The efficiency of microfluidic techniques for protein capsules synthesis was studied by calculating the percentage of protein participating in capsule formation following the fluorescent signal of labelled protein in residue solutions. After the preparation of the microgel capsules was accomplished and the resulting capsules were washed, in order to remove unreacted species, and the concentration of unreacted protein was calculated following UV absorption and fluorescent signal of each protein. In order to study the release kinetics of insulin, glucagon and lysozyme protein microgel shells, the loaded samples were washed with DDW pH=7 within following intervals of time: 10 min., 30 min., 1 h., 3 h., 8 h., 12 h., 24 h., 48 h., 3 d., 7 d. Each washing solution was than analysed by UV spectroscopy and fluorimeter and exact concentration of the released species was detected.
Finally, whether the aggregation nature of the protein structures influenced the release kinetics of the encapsulated proteins was studied. […] This effect is attributed to the slow aggregation process of glucagon protein in the protein assembly. However, for the multishell structures, the proteins which localise at the core of the microgels tend to dissociate (release) only after the proteins of the outer shell are released. […]

Question: For `CC1(C)S[C@@H]2[C@H](NC(=O)COc3ccccc3)C(=O)N2[C@H]1C(=O)O` [Penicillin V], which “time to maximum release rate” value ([1]; release from lysozyme capsules in fresh buffer) is on record?
Answer: Its value is “one”.

Question: Which “extent of release from capsules” value ([1]; after one week) does the source give for `Cc1ccc2c(c1)sc(-c1ccc(N(C)C)cc1)[n+]2C.[Cl-]` [ThT, Thioflavin T] here?
Answer: Its value is “not fully released”.

Question: Which “release rate of protein from capsules” value [2] does the source give for “glucagon: human glucagon (Gemini Bio-Products), protein assembled into and released from microgel capsules” here?
Answer: The value was “much faster”.
